Experimental data: ChEMBL document CHEMBL3632471, “Inhibitory effects of compounds from Styrax obassia on NO production” (Bioorg Med Chem Lett, 2015)
Active and inactive are the calls of the source. No cut-off for these calls is given here.

How the values were obtained:
RAW264.7 [1] = assay: Antiinflammatory activity in mouse RAW264.7 cells assessed as inhibition of LPS-induced NO production at 3 to 30 ug/ml after 24 hrs by Griess reaction; assay type: functional
RAW264.7 [2] = assay: Antiinflammatory activity in mouse RAW264.7 cells assessed as inhibition of LPS-induced NO production at 30 ug/ml after 24 hrs by Griess reaction; assay type: functional, cell-based
[3] = (§1) Cytotoxicity against mouse RAW264.7 cells assessed as cell viability at 3 to 30 ug/ml after 24 hrs by MTT assay; assay type: cell-based; details: RAW264.7 cells, read-out: Activity
RAW264.7 [4] = assay: Antiinflammatory activity in mouse RAW264.7 cells assessed as inhibition of LPS-induced COX2 expression at 3 to 30 ug/ml after 18 hrs by Western blot analysis; assay type: functional, cell-based
RAW264.7 [5] = assay: as §1; assay type: cell-based; details: raw264.7, 24 h
RAW264.7 [6] = assay: Antiinflammatory activity in mouse RAW264.7 cells assessed as inhibition of LPS-induced iNOS expression after 18 hrs by Western blot analysis; assay type: functional, cell-based

SMILES	inhibition (RAW264.7 [1])	inhibition (RAW264.7 [2])	other results
COc1cc(-c2oc3c(OC)cc(CCCO)cc3c2C=O)ccc1O	inactive		
COc1cc(C[C@H]2CO[C@H](c3ccc(O)c(OC)c3)[C@H]2CO)ccc1O	inactive		
COc1cc(CCCO)cc2cc(-c3ccc4c(c3)OCO4)oc12	inactive		
COc1cc([C@H]2OC[C@H]3[C@@H]2CO[C@H]3c2ccc(O)c(OC)c2)ccc1O (stereo in doubt; 12)	inactive		
COc1cc(C(O)CCO)cc2cc(-c3ccc4c(c3)OCO4)oc12 (centres undefined)	inactive		
COc1cc([C@H]2OC[C@H]3[C@@H]2CO[C@H]3c2ccc(O)c(OC)c2)ccc1O (stereo in doubt; 11)	inactive		
COc1cc([C@H]2OC[C@H]3[C@@H]2CO[C@@H]3c2cc(OC)c(O)c(OC)c2)cc(OC)c1O	inactive		
COc1cc([C@@H]2OCC3C(=O)OCC32)ccc1O (some centres undefined)		inactive	viability at 24 h [3]: 60%
COc1ccc(-c2cc3cc([C@@H](O)CCO)cc(OC)c3o2)cc1OC		inactive	inhibition (RAW264.7 [4]): Active; Activity (RAW264.7 [5]): Non-toxic; inhibition (RAW264.7 [6]): Dose-dependent effect
COc1ccc(-c2cc3cc(CCCO)cc(OC)c3o2)cc1OC		inactive	
